The AUC(0-t) is exposure summed from dosing to a finite time, without extrapolation to infinity. Read a high AUC(0-t) as more exposure. As a reminder, the Tmax is the time at which the peak concentration occurs. As a reminder, the half-life is the time in which the quantity being followed falls by half. A word on the Cmax: it is the peak of the concentration-time curve.

Data on 6 compounds can be found in patent US8242148B2 (priority 2005, dated 2012).

Entries after “also recorded” stand apart in the source; their conditions may differ. Structures can show the parent of a compound that is named as a salt. Where two headings read alike, the source gives them in different places.

The nature of series [1]: Plasma pharmacokinetics of 2-pyridylacetic acid after betahistine hydrochloride (LC/MS/MS). To be noted: for Terminal elimination rate / Cmax: mean ± SD; for AUC(0-t) / Tmax / half-life / Cmax: plasma.
Method: Blood samples for pharmacokinetic analysis were collected just prior to study drug dosing, and at 0.5, 1, 1.5, 2, 3, and 4 hours. Samples (5 ml) were collected in tubes containing EDTA and were placed on ice after gentle shaking. Samples were centrifuged within 15 min at 4° C. at 3000×g for 10 min and plasma was separated into polypropylene tubes. Plasma was stored at −70° C. until further analysis.
Plasma samples were analyzed using a validated liquid chromatography tandem mass spectroscopy (LC/MS/MS) as reported by Chen et al. with minor modifications. To 500 μL of plasma, 100 μL of 0.5 M orthophosphoric acid (H3PO4) was added. The mixed sample was extracted with 5 ml of ethyl acetate and 2-propanol mixture (97.5:2.5, v/v) and vortex-mixed thoroughly for 1 min. Sample was centrifuged at 2000×g for 10 min maintained at 4° C., the upper clear portion was carefully transferred to a glass tube and evaporated to dryness under nitrogen gas at 25° C. The residue was reconstituted with 100 μL of mobile phase and filtered using a Sep-pak® (Waters) SPE cartridges which was pre-equilibrated with mobile phase. The processed samples were analyzed using a liquid chromatography equipped with a Surveyor autosampler model Plus and a Surveyor quaternary gradient HPLC-pump (Thermo Fisher Scientific) connected to a linear ion trap-Fourier Transform LTQ-FT™ mass spectrometer operated in positive ion electrospray mode.
Plasma concentration-time profile data were used to calculate Cmax, time to achieve Cmax (Tmax), terminal elimination half-life (T1/2), area under the plasma concentration-time curve from zero to last measurable time point (AUC0-t). The half life (T1/2) was calculated as 0.693/λz, where λz is the terminal-phase elimination rate constant. AUC0-t was calculated using the linear trapezoidal rule area under the curve (AUC0-t) from time zero to the time of the last measurable concentration (CT) at 4 hrs (last measurable time point).
In series [2] the test system is histamine H3 autoreceptors. Conditions: cats, oral, cited from earlier work.
The conditions of series [3]: humans, cited from earlier work.
Series [4] has as its system ADHD adults. Put plainly: ECG parameters (QT, QTc) after single-dose betahistine in ADHD adults. It is filed as in vivo, human. To be noted: for QT Baseline / QTc Baseline: baseline (pre-dose); for QT 2 hours / QTc 2 hours: 2 hours post-dose. The text has this:
(§1) Subjects were randomly assigned to active drug, dose, and/or placebo using a modified Latin Square design. Safety measures, including vital signs, electrocardiogram, peak respiratory flow, clinical laboratory tests, and logging of adverse events were observed.
(§2) Those AEs which accounted for >10% of the total were headache (n=11), fatigue (n=8), somnolence (n=8) and dizziness (n=4). […] The ECG data is summarized in Table 1 and categorized as benign.
Throughout the study, two subjects experienced a conversion of their baseline ECG from normal to abnormal but not clinically significant two hours following a dose of study drug betahistine. […] Each of these abnormal ECGs were not repeated in these same subjects with other doses of betahistine.

Series [5] concerns adult human subjects having ADHD. To be noted: in vivo.
Text: as §1
There were 39 total adverse events (AEs) across 16 total subjects, of which 12/16 accounted for all 39 reports. Only 16/39 AEs were rated as moderate in severity. […] Of the 39 total AEs, 21/39 were judged by the investigator to be possibly related to study drug based primarily on proximity (within 3 hours) to study drug administration. Only 3/39 AEs were judged as probably related to study drug and consisted of orthostasis, drowsiness and agitation. All adverse events resolved within 24 hours of the visit and most resolved by the end of each study visit (each visit lasting 5-6 hours). One subject experienced orthostatic hypotension at 1 hour following study drug administration on two separate occasions (Visit 1 (rated as mild) and Visit 3 (rated as moderate), the later judged to be probably study drug-related.
as §2

In series [6] the test system is ADHD adults. Kind of series: Heart rate and blood pressure change from baseline. In kind it is in vivo, human.
Text: as §1
Changes from baseline in heart rate and BP were not dose dependent, nor were changes in these cardiovascular parameters by dose appreciably different from the placebo condition.

Series [7] has as its system ADHD adults. Kind of series: Pulmonary function (forced expiratory volume). In kind it is in vivo, human. The method, then: as §1
All pulmonary function readings were analyzed by a board certified pulmonologist and no report was rated clinically significant.

Series [8] has as its system ADHD adults. Put plainly: Continuous Performance Task (CPT) signal detection, A prime and B prime. In kind it is in vivo, human. From the text:
Subjects were randomly assigned to active drug, dose, and/or placebo using a modified Latin Square design. Safety measures, including vital signs, electrocardiogram, peak respiratory flow, clinical laboratory tests, and logging of adverse events were observed. […] Instead, the study used surrogate markers of ADHD efficacy which are widely accepted, such as the signal detection (A prime) measures from the Continuous Performance Task (CPT) and a Go-no-Go task. Improvements or enhanced signal detection for either of these tasks track well with clinical improvements measuring ADHD symptom severity and frequency. (Epstein et al., Relations Between Continuous Performance Test Performance Measures and ADHD Behaviors, J. of Abnormal Child Psych. 31:5, 543-54 (2001)). […] To reflect this design, the study was analyzed using a repeated-measures analysis of variance (ANOVA) model (in SAS version 9.2, using the MIXED procedure). Treatment (4 levels: 0, 50, 100, 200) and Period (3 levels) and their interaction were included as fixed within-subject factors. In the case of signal detection measures, measures over three repeated blocks in each of three sessions were averaged to produce a summary measure for that session. Sessions were performed prior to drug administration and at two and four hours post-administration. A third within-subject factor (time since drug administration in hours; 0, 2, and 4 hours) was included along with its interactions with the treatment and period effects. A compound-symmetry structure was assumed for the correlation pattern of the within-subject residuals (equivalent to allowing each subject to have an individual intercept term to account for correlation among repeat measures on the same subject). Principle hypothesis tests were comparisons of the average of the non-zero doses against the placebo, as well as comparisons of each individual non-zero dose versus placebo. These were performed as linear contrasts, two-sided, α=0.05.

In series [9] the test system is ADHD adults. Kind of series: Satiety Quotient (surrogate marker of appetite suppression). In kind it is in vivo, human. Conditions: RMANOVA, treatment 0, 50, 100, 200 mg. The text has this: Instead, the study used surrogate markers of ADHD efficacy which are widely accepted, such as the signal detection (A prime) measures from the Continuous Performance Task (CPT) and a Go-no-Go task. Improvements or enhanced signal detection for either of these tasks track well with clinical improvements measuring ADHD symptom severity and frequency. (Epstein et al., Relations Between Continuous Performance Test Performance Measures and ADHD Behaviors, J. of Abnormal Child Psych. 31:5, 543-54 (2001)). […] To reflect this design, the study was analyzed using a repeated-measures analysis of variance (ANOVA) model (in SAS version 9.2, using the MIXED procedure). Treatment (4 levels: 0, 50, 100, 200) and Period (3 levels) and their interaction were included as fixed within-subject factors.

The subject of series [10] is HPA axis. Kind of series: Cortisol response / HPA axis activity in rats. It is filed as in vivo, rat. From the text:
Certain subtypes of depression have been associated with decreased function of the hypothalamic-pituitary-adrenal (HPA) axis as evidenced by low cortisol and/or decreased CRH and ACTH levels.

The test system of the next series is healthy volunteers. Conditions: cited from earlier work.
The subject of the next series is rats. Conditions: cited from earlier work.
The conditions of series [11]: animal studies, peripheral administration; cited from earlier work.
The subject of series [12] is patients with multiple sclerosis. To be noted: cited from earlier work.
Series [13] concerns patients with cerebrovascular dementia. Conditions: placebo-controlled trials; cited from earlier work.
Series [14] has as its system histamine release in the anterior hypothalamus. To be noted: rats; cited from earlier work.
Series [15] has as its system HPA axis. To be noted: mice; cited from earlier work.
Setting [16] is: after 100 mg betahistine hydrochloride.
Setting [17] is: RMANOVA, treatment 0, 50, 100, 200 mg.
The mark [18] stands for this setting: RMANOVA, treatment 0, 50, 100, 200 mg, DF 3/29.

Regarding `O=C(O)Cc1ccccn1` [2-pyridylacetic acid], the “Half-life and Tmax across the dose levels” value in series [1] (50, 100, 200 mg betahistine) is listed as “remained unchanged”. The Terminal elimination rate amounted to 0.43 ± 0.35 h⁻¹ in series [1] (after 50 mg betahistine hydrochloride), 0.25 ± 0.18 h⁻¹ in series [1] (setting [16]) and 0.28 ± 0.17 h⁻¹ in series [1] (after 200 mg betahistine hydrochloride). For the same compound, the area under the curve AUC(0-t) was 1300 ± 587 ng·h/mL in series [1] (human, 50 mg); 2780 ± 1840 ng·h/mL in series [1] (human, 100 mg); 5250 ± 2430 ng·h/mL in [1] (human, 200 mg). The time of peak concentration (Tmax) in series [1] (human, 50 mg) amounted to 1.55 ± 0.44 h; in series [1] (human, 100 mg) it was 1.3 ± 0.35 h; in series [1] (human, 200 mg) it was 2.05 ± 0.86 h. In addition, the half-life in [1] (human, 50 mg) was 4.24 ± 1.68 h; in [1] (human, 100 mg), 3.74 ± 1.97 h; in series [1] (human, 200 mg) it was 3.88 ± 3.38 h. The highest concentration (Cmax) in series [1] (human, 50 mg, Cmax, after 50 mg betahistine hydrochloride) was found to be 611 ± 490 ng/mL; in series [1] (human, 100 mg, Cmax, after 100 mg betahistine hydrochloride) it was 1040 ± 673 ng/mL; in series [1] (human, 200 mg, Cmax, after 200 mg betahistine hydrochloride), 2040 ± 905 ng/mL; in series [1] (setting [16]), 1043.88 ± 673.49 ng/mL.

On to `CNCCc1ccccn1` [betahistine dihydrochloride], for which, in [2] (relative to human-equivalent 24-48 mg/day), the “Dose required for rapid biological effect on histamine H3 autoreceptors” value is 5 fold and 10 fold higher equivalent doses were required.

With `CNCCc1ccccn1.CS(=O)(=O)O.CS(=O)(=O)O` [betahistine mesylate], the Bioavailability entry in series [3] (oral) is “less than 1%”.

Turning to `CNCCc1ccccn1` [betahistine], the “ECG data, category” value in the series on ADHD adults [4] (50, 100, 200 mg) is on record as “benign”. Further, in the series with ADHD adults [4] (betahistine 50 mg group), the “QT Baseline” value came to 416 ± 33 ms and the “QTc Baseline” value came out at 416 ± 18 ms. Also, in the series with ADHD adults [4] (betahistine 50 mg), the “QT 2 hours” value is 403 ± 26 ms and the “QTc 2 hours” value stood at 407 ± 18 ms. Further, in the series with ADHD adults [4] (betahistine 100 mg group), the “QT Baseline” value stood at 412 ± 27 ms and the “QTc Baseline” value was 409 ± 13 ms. Also, in the series with ADHD adults [4] (betahistine 100 mg), the “QT 2 hours” value came to 395 ± 37 ms and the “QTc 2 hours” value came out at 401 ± 14 ms. Besides, in the series with ADHD adults [4] (betahistine 200 mg group), the “QT Baseline” value came out at 403 ± 37 ms and the “QTc Baseline” value is 410 ± 18 ms. In the series with ADHD adults [4] (betahistine 200 mg), the “QT 2 hours” value came out at 400 ± 34 ms and the “QTc 2 hours” value came to 405 ± 17 ms. Besides, the “QT and rate corrected QTc (Bazett's) change from baseline” value in the series with ADHD adults [4] (betahistine 50, 100, 200 mg vs placebo (FIG. 1)) is “No clinically significant change”. The “Abnormal ECGs, clinical significance” value with ADHD adults [4] (two subjects abnormal but NCS at 2 hours (200 mg, 50 mg)) is listed as “no abnormal ECGs were read as clinically significant”. In addition, in [5] (human), the “AEs judged possibly related to study drug” value is 21/39, the “AEs judged probably related to study drug” value is reported as 3/39, the “AEs rated as moderate in severity” value was 16/39 and the Total adverse events was 39. Besides, in [5], the “AEs reported as severe” value was “No AEs were reported as severe”; the “Relationship between frequency or severity of AEs and dose” value is given as “no relationship”. In addition, in the series on ADHD adults [6] (50, 100, 200 mg, not dose dependent), the “Heart rate and blood pressure effects” value was “minimal and judged as not clinically significant”. The “Change in systolic blood pressure from baseline” value in the series on ADHD adults [6] (betahistine 50, 100, 200 mg vs placebo (FIG. 2)) is recorded as “No clinically significant change”. The “Change in diastolic blood pressure from baseline” value with ADHD adults [6] (betahistine 50, 100, 200 mg vs placebo (FIG. 3)) is recorded as “No clinically significant change”. Besides, in the series on ADHD adults [7] (FEV 25-75 at four hour post-dose), the “Effect on airway compliance and/or pulmonary function” value is reported as “minimal or no effect”. Also, the “Change in forced expiratory volume in 1 second (FEV) from baseline” value with ADHD adults [7] (betahistine vs placebo (FIG. 4)) is “No clinically significant change”. In addition, in the series with ADHD adults [8] (setting [17]), the “APRIME_CPT, Treatment effect, Pr > F” value was found to be 0.0254 and the “BPRIME_CPT, Treatment effect, Pr > F” value worked out at 0.0045. In the series on ADHD adults [8] (setting [18]), the “APRIME_CPT, Treatment effect, F Value” turned out to be 3.59 and the “BPRIME_CPT, Treatment effect, F Value” turned out to be 5.38. Moreover, the “Effect on attention (CPT sensitivity and inhibition)” value in the series with ADHD adults [8] (adults with ADHD, single doses up to 200 mg) is “improves attention”. Moreover, in the series with ADHD adults [8] (betahistine vs placebo), the “CPT A prime, effect vs placebo” value was “demonstrated a treatment effect compared to placebo”. In addition, in the series on ADHD adults [9], the “Satiety Quotient - 2 hrs, Treatment effect, Pr > F” value was 0.4475 and the “Satiety Quotient - 4 hrs, Treatment effect, Pr > F” value is given as 0.8360. Besides, in the series on ADHD adults [9] (DF 3/21), the “Satiety Quotient - 2 hrs, Treatment effect, F Value” was determined as 0.92 and the “Satiety Quotient - 4 hrs, Treatment effect, F Value” was 0.28. Further, in the series with HPA axis [10], the “Cortisol response to stress” value was “increases the cortisol response to stress” and the “Effect on decrease in cortisol after dexamethasone administration” value is “counteracts the decrease in cortisol”. Further, in series [3], the “Biologic half-life, mean” value is 5 hours and the “Biologic half-life, variability” value is 2-11 hours. Moreover, the “Effects on arousal and vigilance” value with healthy volunteers (32 mg dose vs placebo) is reported as “no effect; also recorded: no noticeable CNS-stimulating effects”. In the series on healthy volunteers (single dose 64 mg vs placebo), the “Effects on arousal and vigilance” value is given as “greater than those observed with placebo; also recorded: only mild stimulant-like effects”. Also, the “Biologic effects on brain histamine or histamine H3 receptors” value in series [2] (roughly the human dose (48 mg/day)) is on record as “no biologic effects”. The Eating behavior entry with rats is recorded as “decrease eating behavior in rats in a dose-dependent manner”. In series [11], the “CNS concentration relative to plasma levels” value is “approximately half”. Besides, the Symptoms of fatigue result in series [12] was “statistically significant reduction”. In [13], the “Motor activity and cognitive functioning” value is “increase motor activity and improve cognitive functioning”.

With `NC(=O)C[S+]([O-])C(c1ccccc1)c1ccccc1` (centres unmarked) [modafinil], the Hypothalamic histamine release result in series [14] is listed as “increase hypothalamic histamine release”.

Take `NNCCc1ccccc1` [phenelzine]: the Cortisol levels entry with HPA axis [15] is “increases cortisol levels”.
